IC50 data for ten molecules are collected here from US20250011332A1, “PYRAZOLO FUSED RING COMPOUND AND USE THEREOF” (SOTER BIOPHARMA PTE. LTD., priority 2021, published 2025).

Assay type in all cases: biochemical
The target in one assay is JAK1(h) (Homo sapiens (Human), UniProt P23458). Put plainly: JAK1 kinase activity test in vitro ([γ-33P]-ATP, Eurofins). As to the method:
(§1) Recombinant human JAK1, JAK2, JAK3 and Tyk2 […], main instruments and reagents are all provided by the British company Eurofins
(§2) JAK2, JAK3 and TYK2 dilution: 20 mM 3-(N-morpholine)propanesulfonic acid (MOPS), 1 mM EDTA, 0.01% Brij-35.5% glycerol, 0.1% β-mercaptoethanol, 1 mg/mL BSA; JAK1 dilution: 20 mM TRIS, 0.2 mM EDTA, 0.1% β-mercaptoethanol, 0.01% Brij-35.5% glycerol. All compounds were prepared as 100% DMSO solutions and brought to 50 times the final assay concentration. The test compound was subjected to 3-fold serial concentration dilution with a final concentration from 10 μM to 0.001 μM of a total of 9 concentrations. The content of DMSO in the detection reaction was 2%. A working stock solution of this compound was added to the assay well as the first component of the reaction, and then the remaining components were added according to the protocol detailed in the following determination.
JAK1(h) was incubated with 20 mM Tris/HCl pH 7.5, 0.2 mM EDTA, 500 μM MGEEPLYWSFPAKKK (SEQ ID NO: 1), 10 mM magnesium acetate and [γ-^33P]-ATP (activity and concentration were determined as required). The reaction was started by adding the Mg/ATP mixture, and after incubation at room temperature for 40 min, the reaction was terminated by adding 0.5% phosphoric acid. Then 10 μL of the reaction product was spotted on a P30 filter pad which was washed three times with 0.425% phosphoric acid and once with methanol within 4 min, dried, and subjected to scintillation counting.
(§3) IC50 results were analyzed by XLFIT5 (205 formula) of IDBS Company.

The target in the next assay is JAK2(h) (Homo sapiens (Human), UniProt O60674). The assay is described as follows: JAK2 kinase activity test in vitro ([γ-33P]-ATP, Eurofins). How it is done: as §1, §2
Sequence of JAK2(h) (O60674 whole entry): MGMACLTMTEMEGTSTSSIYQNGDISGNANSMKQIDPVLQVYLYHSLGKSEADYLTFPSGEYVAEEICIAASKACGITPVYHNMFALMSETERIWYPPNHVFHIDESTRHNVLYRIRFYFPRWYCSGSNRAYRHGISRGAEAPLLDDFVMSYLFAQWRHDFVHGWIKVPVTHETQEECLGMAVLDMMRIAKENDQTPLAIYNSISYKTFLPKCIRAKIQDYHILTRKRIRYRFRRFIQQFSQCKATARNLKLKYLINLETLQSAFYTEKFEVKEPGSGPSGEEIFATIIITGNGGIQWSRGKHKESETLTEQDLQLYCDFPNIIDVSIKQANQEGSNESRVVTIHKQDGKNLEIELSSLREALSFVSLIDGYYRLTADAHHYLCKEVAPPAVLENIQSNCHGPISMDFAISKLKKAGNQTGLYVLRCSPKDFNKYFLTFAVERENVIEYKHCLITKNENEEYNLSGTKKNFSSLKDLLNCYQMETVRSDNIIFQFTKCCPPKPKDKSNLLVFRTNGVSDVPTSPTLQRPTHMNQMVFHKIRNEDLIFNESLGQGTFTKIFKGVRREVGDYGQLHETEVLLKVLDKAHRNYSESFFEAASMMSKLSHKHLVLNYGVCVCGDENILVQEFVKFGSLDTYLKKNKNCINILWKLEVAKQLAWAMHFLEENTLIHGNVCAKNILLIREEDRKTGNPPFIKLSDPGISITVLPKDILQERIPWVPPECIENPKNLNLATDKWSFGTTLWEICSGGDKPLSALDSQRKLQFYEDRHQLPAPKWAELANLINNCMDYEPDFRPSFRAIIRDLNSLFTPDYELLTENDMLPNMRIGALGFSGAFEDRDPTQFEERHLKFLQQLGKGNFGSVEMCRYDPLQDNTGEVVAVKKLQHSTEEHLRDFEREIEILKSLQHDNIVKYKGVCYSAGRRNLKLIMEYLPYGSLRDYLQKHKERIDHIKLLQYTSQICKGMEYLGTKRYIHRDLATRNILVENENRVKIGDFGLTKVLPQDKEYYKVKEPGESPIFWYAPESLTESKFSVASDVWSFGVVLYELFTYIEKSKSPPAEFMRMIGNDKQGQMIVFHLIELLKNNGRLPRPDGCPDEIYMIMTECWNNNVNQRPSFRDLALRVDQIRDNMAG
JAK2(h) was incubated with 8 mM MOPS pH 7.0, 0.2 mM EDTA, 100 μM […] (SEQ ID NO: 2), 10 mM magnesium acetate, and [γ-^33P]-ATP (activity and concentration were determined as required). The reaction was started by adding the Mg/ATP mixture, and after incubation at room temperature for 40 min, the reaction was terminated by adding 0.5% phosphoric acid. Then 10 μL of the reaction product was spotted on a P30 filter pad which was washed three times with 0.425% phosphoric acid and once with methanol within 4 min, dried, and subjected to scintillation counting.
as §3

Another assay concerns the target JAK3(h) (Homo sapiens (Human), UniProt P52333). Put plainly: JAK3 kinase activity test in vitro ([γ-33P]-ATP, Eurofins). How it is done: as §1, §2
JAK3(h) was incubated with 8 mM MOPS pH 7.0, 0.2 mM EDTA, 500 μM GGEEEEYFELVKKKK (SEQ ID NO: 3), 10 mM magnesium acetate, and [γ-^33P]-ATP (activity and concentration were determined as required). The reaction was started by adding the Mg/ATP mixture, and after incubation at room temperature for 40 min, the reaction was terminated by adding 0.5% phosphoric acid. Then 10 μL of the reaction product was spotted on a P30 filter pad which was washed three times with 0.425% phosphoric acid and once with methanol within 4 min, dried, and subjected to scintillation counting.
as §3

Another assay deals with TYK2(h) (Homo sapiens (Human), UniProt P29597). The assay is described as follows: TYK2 kinase activity test in vitro ([γ-33P]-ATP, Eurofins). As to the method: as §1, §2
Sequence of TYK2(h) (P29597 whole entry): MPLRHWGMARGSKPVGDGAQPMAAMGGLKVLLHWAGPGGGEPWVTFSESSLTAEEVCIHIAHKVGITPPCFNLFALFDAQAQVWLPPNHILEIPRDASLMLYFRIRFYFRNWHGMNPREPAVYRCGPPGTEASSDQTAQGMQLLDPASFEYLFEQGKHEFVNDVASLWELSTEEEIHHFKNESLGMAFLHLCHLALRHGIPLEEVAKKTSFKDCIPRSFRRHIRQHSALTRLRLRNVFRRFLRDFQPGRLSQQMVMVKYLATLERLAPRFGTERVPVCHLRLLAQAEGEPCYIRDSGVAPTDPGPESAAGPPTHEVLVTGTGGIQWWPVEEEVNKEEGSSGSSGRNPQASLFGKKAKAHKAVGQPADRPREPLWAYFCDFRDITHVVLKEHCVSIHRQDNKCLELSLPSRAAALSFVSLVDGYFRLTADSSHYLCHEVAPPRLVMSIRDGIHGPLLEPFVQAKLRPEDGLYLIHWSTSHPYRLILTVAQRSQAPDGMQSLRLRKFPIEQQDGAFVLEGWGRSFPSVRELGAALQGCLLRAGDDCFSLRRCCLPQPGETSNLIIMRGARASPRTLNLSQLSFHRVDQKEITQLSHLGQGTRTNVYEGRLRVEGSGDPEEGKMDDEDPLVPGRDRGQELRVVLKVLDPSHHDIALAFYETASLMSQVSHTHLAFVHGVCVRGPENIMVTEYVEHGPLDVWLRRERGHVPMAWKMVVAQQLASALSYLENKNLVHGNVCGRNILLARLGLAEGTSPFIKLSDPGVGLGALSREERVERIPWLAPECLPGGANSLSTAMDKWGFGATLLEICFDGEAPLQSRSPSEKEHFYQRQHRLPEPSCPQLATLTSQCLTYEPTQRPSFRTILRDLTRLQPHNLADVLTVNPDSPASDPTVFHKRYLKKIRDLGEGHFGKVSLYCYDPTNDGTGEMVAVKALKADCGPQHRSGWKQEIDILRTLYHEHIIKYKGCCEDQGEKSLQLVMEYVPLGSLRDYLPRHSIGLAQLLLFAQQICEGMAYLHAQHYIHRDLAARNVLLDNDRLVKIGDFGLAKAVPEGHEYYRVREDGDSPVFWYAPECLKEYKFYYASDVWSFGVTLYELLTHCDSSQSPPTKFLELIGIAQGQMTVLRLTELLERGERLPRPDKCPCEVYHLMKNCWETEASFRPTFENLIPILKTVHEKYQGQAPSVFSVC
TYK2(h) was incubated with 8 mM MOPS pH 7.0, 0.2 mM EDTA, 250 μM GGMEDIYFEFMGGKKK (SEQ ID NO: 4), 10 mM magnesium acetate, and [γ-^33P]-ATP (activity and concentration were determined as required). The reaction was started by adding the Mg/ATP mixture, and after incubation at room temperature for 40 min, the reaction was terminated by adding 0.5% phosphoric acid. Then 10 μL of the reaction product was spotted on a P30 filter pad which was washed three times with 0.425% phosphoric acid and once with methanol within 4 min, dried, and subjected to scintillation counting.
as §3

Structures are written as SMILES.

Sequence of JAK3(h) (P52333 whole entry): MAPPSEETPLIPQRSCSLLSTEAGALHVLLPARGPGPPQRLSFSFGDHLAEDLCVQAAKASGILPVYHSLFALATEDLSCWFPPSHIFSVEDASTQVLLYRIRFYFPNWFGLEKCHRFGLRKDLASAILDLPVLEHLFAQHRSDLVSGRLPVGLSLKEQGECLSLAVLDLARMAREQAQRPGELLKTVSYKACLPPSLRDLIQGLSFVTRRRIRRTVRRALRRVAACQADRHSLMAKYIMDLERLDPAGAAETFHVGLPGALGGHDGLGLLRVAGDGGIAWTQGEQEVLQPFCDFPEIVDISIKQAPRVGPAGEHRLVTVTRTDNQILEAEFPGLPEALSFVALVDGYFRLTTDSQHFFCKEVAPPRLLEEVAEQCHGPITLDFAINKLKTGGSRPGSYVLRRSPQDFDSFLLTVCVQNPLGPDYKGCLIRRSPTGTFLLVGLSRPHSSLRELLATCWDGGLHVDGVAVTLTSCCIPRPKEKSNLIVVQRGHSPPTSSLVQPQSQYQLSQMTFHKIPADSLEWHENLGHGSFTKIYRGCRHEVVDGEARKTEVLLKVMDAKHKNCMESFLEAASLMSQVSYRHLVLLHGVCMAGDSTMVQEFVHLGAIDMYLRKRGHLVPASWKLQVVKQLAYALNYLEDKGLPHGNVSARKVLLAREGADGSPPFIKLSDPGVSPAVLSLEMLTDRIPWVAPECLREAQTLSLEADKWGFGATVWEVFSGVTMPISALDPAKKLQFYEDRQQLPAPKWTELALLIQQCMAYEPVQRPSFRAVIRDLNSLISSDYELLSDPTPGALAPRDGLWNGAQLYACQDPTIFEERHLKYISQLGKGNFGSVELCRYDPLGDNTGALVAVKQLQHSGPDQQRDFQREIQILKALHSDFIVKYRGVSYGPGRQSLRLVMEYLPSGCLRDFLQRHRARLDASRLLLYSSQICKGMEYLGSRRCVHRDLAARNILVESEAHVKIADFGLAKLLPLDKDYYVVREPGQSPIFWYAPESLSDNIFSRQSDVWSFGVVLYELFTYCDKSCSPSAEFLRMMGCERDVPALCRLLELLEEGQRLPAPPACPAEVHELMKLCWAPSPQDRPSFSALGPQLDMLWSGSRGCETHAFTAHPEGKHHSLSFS
Sequence of JAK1(h) (P23458 whole entry): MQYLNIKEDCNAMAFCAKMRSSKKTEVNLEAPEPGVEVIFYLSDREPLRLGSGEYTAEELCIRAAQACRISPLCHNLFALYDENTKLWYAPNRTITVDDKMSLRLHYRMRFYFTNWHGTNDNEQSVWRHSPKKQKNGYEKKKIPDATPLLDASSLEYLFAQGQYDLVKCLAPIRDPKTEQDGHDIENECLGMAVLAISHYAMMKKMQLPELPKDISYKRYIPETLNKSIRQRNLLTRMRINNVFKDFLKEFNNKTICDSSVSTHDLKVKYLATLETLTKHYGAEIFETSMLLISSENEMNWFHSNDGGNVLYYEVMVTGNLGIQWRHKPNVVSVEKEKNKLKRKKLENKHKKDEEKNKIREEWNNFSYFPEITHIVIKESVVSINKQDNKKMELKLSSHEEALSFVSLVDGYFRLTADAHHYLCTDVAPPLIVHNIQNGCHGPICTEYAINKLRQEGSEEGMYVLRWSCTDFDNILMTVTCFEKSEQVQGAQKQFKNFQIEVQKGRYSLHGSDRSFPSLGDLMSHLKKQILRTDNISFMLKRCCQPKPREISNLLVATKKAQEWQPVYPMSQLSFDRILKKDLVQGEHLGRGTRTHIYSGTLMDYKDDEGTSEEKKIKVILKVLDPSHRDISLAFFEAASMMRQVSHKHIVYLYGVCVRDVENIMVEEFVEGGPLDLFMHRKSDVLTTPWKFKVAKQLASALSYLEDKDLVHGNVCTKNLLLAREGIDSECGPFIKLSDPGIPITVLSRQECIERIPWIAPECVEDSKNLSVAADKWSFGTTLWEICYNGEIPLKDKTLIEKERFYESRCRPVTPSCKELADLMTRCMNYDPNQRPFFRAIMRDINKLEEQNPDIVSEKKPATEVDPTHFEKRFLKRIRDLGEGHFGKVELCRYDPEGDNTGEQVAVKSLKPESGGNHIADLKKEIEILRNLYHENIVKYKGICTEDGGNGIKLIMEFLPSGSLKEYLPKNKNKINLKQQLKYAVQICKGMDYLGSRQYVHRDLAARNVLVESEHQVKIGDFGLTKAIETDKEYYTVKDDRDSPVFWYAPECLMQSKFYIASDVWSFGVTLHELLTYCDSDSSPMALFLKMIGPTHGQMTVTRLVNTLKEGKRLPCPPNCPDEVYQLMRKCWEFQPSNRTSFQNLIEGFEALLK

As a reminder, the IC50 is the concentration needed to halve the response being measured. Low values mean higher potency, high ones lower potency. As for `Cn1ccc(-c2cn3nccc3c(-c3cnn(C(CC#N)C45CC(C#N)(C4)C5)c3)n2)n1` (stereo not drawn) [Compound 3], the IC50 stood at 1170 nM at JAK1(h), 387 nM against JAK2(h), 10000 nM against JAK3(h) and 177 nM against TYK2(h).
For `Cn1nc(-c2cn3nccc3c(-c3cnn([C@]4(CC#N)CC5(C[C@H](C#N)C5)C4)c3)n2)cc1N` (stereo partly drawn) [Compound 14] the same measures were 51 nM, 6 nM, 296 nM and 0.8 nM.
The corresponding values for `Cn1ccc(-c2cn3nccc3c(-c3cnn(C4(CC#N)CC5C(C#N)C5C4)c3)n2)n1` (stereo not drawn) [Compound 8] are 13.7 nM, 1.13 nM, 22.8 nM and 6.43 nM.
For `Cn1cc(-c2cc(-c3cnn([C@]4(CC#N)CC5(C[C@H](C#N)C5)C4)c3)c3ccnn3c2)cn1` (stereo partly drawn) [Compound 16] the same measures were 42 nM, 6 nM, 67 nM and 2 nM.
As for `Cn1ccc(-c2cn3nccc3c(-c3cnn(C4(CC#N)CC5(CN(C#N)C5)C4)c3)n2)n1` [Compound 7], the IC50 against JAK1(h) is 2910 nM; against TYK2(h), 228 nM.
With `Cn1ccc(-c2cn3nccc3c(-c3cnn(C4(CC#N)CC5(CN(CC#N)C5)C4)c3)n2)n1` [Compound 6], the IC50 on JAK1(h) was found to be 3130 nM; at TYK2(h) it was 177 nM.
With `N#CC[C@]1(n2cc(-c3nc(-c4cc(N)[nH]n4)cn4nccc34)cn2)CC2(C[C@@H](C#N)C2)C1` (stereo partly drawn) [Compound 21], the IC50 was found to be 5 nM on JAK1(h), 3 nM against JAK2(h), 99 nM against JAK3(h) and 0.7 nM against TYK2(h).
The corresponding values for `Cn1ccc(-c2cn3nccc3c(-c3cnn([C@]4(CC#N)CC5(C[C@@H](C#N)C5)C4)c3)n2)n1` (stereo partly drawn) [Compound 5] are 78 nM, 40 nM, 2260 nM and 9 nM.
The corresponding values for `Cn1ccc(-c2cn3nccc3c(-c3cnn(C4(CC#N)CC5(CCN(C#N)CC5)C4)c3)n2)n1` [Compound 9] are 128 nM, 5.16 nM, 209 nM and 2.81 nM.
The corresponding values for `Cn1ccc(-c2cn3nccc3c(-c3cnn([C@]4(CC#N)CC5(C[C@H](C#N)C5)C4)c3)n2)n1` (stereo partly drawn) [Compound 4] are 606 nM, 82 nM, at least 10000 nM and 20 nM.
